From publication PMC8599534, “Isoprenylated Flavonoids as Cav3.1 Low Voltage-Gated Ca^2+ Channel Inhibitors from Salvia digitaloides” (Natural Products and Bioprospecting, 2021)
pIC50: −log10 of the molar value.

Molecular target: T1, Cav3.1 low voltage-gated Ca^2+ channel (Homo sapiens, UniProt O43497)
T1 construct: gene CACNA1G
Test: electrophysiology: peak-current inhibition in HEK […] cells expressing human Cav3.[…]
Assay type: cell-based

T1 sequence (O43497 whole entry): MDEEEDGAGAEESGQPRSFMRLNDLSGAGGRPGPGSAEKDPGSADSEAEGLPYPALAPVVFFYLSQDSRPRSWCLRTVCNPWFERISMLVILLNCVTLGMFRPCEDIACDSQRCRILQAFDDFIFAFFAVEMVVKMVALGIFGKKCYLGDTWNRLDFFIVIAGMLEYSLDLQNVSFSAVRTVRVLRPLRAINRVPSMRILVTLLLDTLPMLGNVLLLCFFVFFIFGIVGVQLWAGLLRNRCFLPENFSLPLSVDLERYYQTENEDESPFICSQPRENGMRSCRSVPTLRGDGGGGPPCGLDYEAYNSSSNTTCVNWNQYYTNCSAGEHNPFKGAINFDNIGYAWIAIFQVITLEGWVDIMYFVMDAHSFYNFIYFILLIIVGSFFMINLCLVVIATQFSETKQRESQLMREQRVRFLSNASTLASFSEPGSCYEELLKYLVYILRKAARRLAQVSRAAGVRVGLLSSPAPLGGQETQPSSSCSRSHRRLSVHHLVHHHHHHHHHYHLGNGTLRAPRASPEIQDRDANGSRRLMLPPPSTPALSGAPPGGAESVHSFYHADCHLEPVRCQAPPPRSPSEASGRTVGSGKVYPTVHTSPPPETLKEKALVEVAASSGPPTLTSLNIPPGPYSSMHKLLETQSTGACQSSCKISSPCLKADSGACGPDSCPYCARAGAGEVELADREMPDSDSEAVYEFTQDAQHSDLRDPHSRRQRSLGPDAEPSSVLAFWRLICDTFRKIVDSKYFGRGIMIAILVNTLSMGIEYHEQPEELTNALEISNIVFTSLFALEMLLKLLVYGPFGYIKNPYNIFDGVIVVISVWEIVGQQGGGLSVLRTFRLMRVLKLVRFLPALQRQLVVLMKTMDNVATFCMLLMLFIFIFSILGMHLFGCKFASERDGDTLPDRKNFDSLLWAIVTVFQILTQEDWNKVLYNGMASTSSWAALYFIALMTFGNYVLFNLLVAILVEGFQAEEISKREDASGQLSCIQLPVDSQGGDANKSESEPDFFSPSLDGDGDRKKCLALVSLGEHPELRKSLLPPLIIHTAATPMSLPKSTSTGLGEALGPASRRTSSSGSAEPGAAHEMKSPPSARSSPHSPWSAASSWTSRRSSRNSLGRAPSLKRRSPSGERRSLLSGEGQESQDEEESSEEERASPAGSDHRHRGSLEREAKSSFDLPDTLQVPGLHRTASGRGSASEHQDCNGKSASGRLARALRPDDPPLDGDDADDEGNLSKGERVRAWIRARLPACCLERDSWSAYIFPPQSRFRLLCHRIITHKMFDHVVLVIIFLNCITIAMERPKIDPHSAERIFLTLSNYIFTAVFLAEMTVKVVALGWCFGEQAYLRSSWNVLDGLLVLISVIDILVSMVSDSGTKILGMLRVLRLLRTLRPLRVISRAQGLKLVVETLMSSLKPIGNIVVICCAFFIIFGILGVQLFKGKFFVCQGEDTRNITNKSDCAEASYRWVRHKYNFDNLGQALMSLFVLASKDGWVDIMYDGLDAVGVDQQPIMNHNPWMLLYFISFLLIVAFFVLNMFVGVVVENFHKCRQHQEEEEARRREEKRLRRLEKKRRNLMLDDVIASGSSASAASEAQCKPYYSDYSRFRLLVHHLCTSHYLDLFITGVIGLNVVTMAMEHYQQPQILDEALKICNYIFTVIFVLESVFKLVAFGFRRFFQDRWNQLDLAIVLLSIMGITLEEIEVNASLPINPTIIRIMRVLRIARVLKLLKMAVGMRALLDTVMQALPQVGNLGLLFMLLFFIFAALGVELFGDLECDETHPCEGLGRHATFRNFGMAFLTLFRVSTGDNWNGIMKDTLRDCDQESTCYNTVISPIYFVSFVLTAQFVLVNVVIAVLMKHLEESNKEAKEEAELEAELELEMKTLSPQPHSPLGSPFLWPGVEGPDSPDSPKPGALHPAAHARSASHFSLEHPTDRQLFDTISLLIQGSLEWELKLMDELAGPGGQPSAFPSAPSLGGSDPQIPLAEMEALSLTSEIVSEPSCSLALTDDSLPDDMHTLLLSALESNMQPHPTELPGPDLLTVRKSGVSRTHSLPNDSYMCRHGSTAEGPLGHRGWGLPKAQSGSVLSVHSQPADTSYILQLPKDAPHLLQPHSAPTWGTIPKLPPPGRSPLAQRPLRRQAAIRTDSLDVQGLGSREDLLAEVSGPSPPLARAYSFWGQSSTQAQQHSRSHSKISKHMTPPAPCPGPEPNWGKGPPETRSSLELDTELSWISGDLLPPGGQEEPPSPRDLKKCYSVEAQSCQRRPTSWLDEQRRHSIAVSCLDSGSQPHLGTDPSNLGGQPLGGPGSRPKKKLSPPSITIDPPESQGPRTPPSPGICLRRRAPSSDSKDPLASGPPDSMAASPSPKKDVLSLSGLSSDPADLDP

Structure (SMILES): CC(C)=CCc1c([C@@H]2CC(=O)c3c(O)cc(O)c(CC=C(C)C)c3O2)cc2c(c1O)OC(C)(C)C=C2 [compound 2, 5,7,3′-trihydroxy-4′,5′-(2⁗,2⁗-dimethylpyran)-8,2′-di(3-methyl-2-butenyl)-(2S)-flavanone]
- pIC50: 5.46
